In patent publication US20050277625A1, “Estriol and estetrol prodrugs” (priority 2004, published 2005):

How the values were obtained:
uterus weight = assay: Estrogenic activity in ovariectomized rats, oral administration (uterus weight); type: in vivo, Wistar rats; conditions: for Uterus Weight UVD (Uterus Doubling Dose vs. OVX): treatment days 1-3, sacrifice day 4
Description: (§1) Table 1 illustrates the estrogenic activity in the case of oral administration and liver toxicity (hepatic effects) based on data of selected compounds in in-vivo tests with rats.
(§2) Adult Wistar rats are ovariectomized and are brought into the test after a 14-day waiting period. The animals are then treated for over three days (days 1-3) and then sacrificed (day 4). Then, the organ weights are determined and estrogen-modulated factors of hepatic secretion in serum are determined, which in the rat are the increase of angiotensinogen and the drop in total cholesterol and HDL cholesterol.

erythrocytes = assay: Binding to erythrocytes: displacement of 14C-estradiol sulfamate; parameters: species or system Human; conditions: for RBA to Erythrocytes: human blood, relative to estradiol-3-sulfamate = 100; for bonds to erythrocytes (in words): m-substituted compounds
Description: The SO2—NH2 group of the substances according to the invention can result in a concentration in erythrocytes by binding to carboanhydrases. The displacement of estradiol-3-sulfamate from the erythrocyte bond by test substances is measured.
Test preparation: Human blood is mixed with a mixture that consists of ^14C-labeled and unlabeled estradiol sulfamate. The erythrocytes are saturated at the selected working point, and the distribution in plasma/erythrocytes is 40:60. A second blood sample is mixed with a mixture that consists of ^14C-labeled estradiol sulfamate and unlabeled test substance. The relative binding affinity is calculated from the proportion of ^14C-labeled estradiol sulfamate in plasma: higher proportion=strong displacement of ^14C-estradiol sulfamate from the erythrocytes by the test substance=high binding affinity.

Human Carboanhydrase I = Human Carboanhydrase I (Homo sapiens, UniProt P00915); assay: Inhibition of carboanhydrase I (CO2 hydration); type: biochemical; conditions: read-out: CAI IC50
Description: Carboanhydrases catalyze the CO2 hydration.
Test preparation: A constant CO2 stream is directed by a buffer that was mixed with carboanhydrase I. The time that is required to reduce the pH within defined limits is a measuring parameter. This parameter reflects the formation of H2CO3 in the medium. IC50 inhibiting values are determined by test substances being pipetted into the test preparation.

[1] = system: angiotensinogen, total cholesterol and HDL cholesterol in serum; assay: Hepatic effects in ovariectomized rats (estrogen-modulated factors of hepatic secretion in serum); conditions: for Angiotensin 1 ED50 (dose which produces an increase by 50% vs. OVX control) / HDL Cholesterol ED50 (dose which produces a drop by 50% vs. OVX control) / Total Cholesterol ED50 (dose which produces a drop by 50% vs. OVX control): oral, days 1-3, serum
Description: as §1, §2

uterus and vagina weight = assay: Interaction of estrogens with progesterone in uterus and vagina of ovariectomized guinea pigs; type: in vivo; conditions: OVX guinea pigs, 7 days s.c., with 3.0 mg progesterone per animal per day
From the text: Adult guinea pigs were ovariectomized and treated for 2 weeks after this operation over 7 days with estradiol or estriol over a large dose range. […] The effects of this treatment on the genital organs was raised on the 8th test day.

[2] = rats, oral, compared with compound 10 or compound 1
[3] = female, Wistar, rat, in vivo, 3 days

Sequence of Human Carboanhydrase I (P00915 whole entry): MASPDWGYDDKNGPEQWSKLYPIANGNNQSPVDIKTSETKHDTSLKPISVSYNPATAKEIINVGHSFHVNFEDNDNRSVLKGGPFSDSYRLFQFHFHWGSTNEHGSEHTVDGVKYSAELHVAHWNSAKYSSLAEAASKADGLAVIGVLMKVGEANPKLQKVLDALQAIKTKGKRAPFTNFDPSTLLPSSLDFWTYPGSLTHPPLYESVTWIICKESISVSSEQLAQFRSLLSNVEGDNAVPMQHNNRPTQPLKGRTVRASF

Row | Compound | Uterus Weight UVD (Uterus Doubling Dose vs. OVX) (uterus weight; OVX rats, oral) | estrogenic activity in the case of oral administration (uterus weight; [2]) | oral bioavailability (uterus weight; [2]) | RBA to Erythrocytes (erythrocytes) | bonds to erythrocytes (in words) (erythrocytes) | IC50 (Human Carboanhydrase I) | Angiotensin 1 ED50 (dose which produces an increase by 50% vs. OVX control) ([1]; OVX rats) | HDL Cholesterol ED50 (dose which produces a drop by 50% vs. OVX control) ([1]; OVX rats) | Total Cholesterol ED50 (dose which produces a drop by 50% vs. OVX control) ([1]; OVX rats) | rel. hep. Akt. (relative hepatic activity vs. uterotropic activity), Angiotensin 1 [1, 3] | rel. hep. Akt. (relative hepatic activity vs. uterotropic activity), HDL Cholesterol [1, 3] | rel. hep. Akt. (relative hepatic activity vs. uterotropic activity), Total Cholesterol [1, 3] | increase of the uterus weight (doubling) (uterus weight; OVX rats, estriol even at very high dosages) | uterotropic actions in combination with progesterone (uterus and vagina weight; uterus) | increase in weight of the vagina in combination with progesterone (uterus and vagina weight; vagina) | rel. hep. Akt. (relative hepatic activity vs. uterotropic activity), HDL Cholesterol ([1]; OVX rats, HDL cholesterol ED50 relative to UVD) | rel. hep. Akt. (relative hepatic activity vs. uterotropic activity), Angiotensin 1 ([1]; OVX rats, angiotensin 1 ED50 relative to UVD) | rel. hep. Akt. (relative hepatic activity vs. uterotropic activity), Total Cholesterol ([1]; OVX rats, total cholesterol ED50 relative to UVD)
1 | C[C@]12CC[C@@H]3c4ccc(O)cc4CC[C@H]3[C@@H]1C[C@@H](O)[C@@H]2OC(=O)c1cccc(S(N)(=O)=O)c1 [Compound 7, 3,16α-Dihydroxyestra-1,3,5(10)-trien-17β-yl 3′-sulfamoylbenzoate] | 137.5 μg/T/T | higher estrogenic activity | higher | 0.5 | only very weak bonds were detected | 600 nM | 8.9 μg/T/T | 6.0 μg/T/T | 4.8 μg/T/T | 0.06 | 0.04 | 0.03 | – | – | – | – | – | –
2 | C[C@]12CC[C@@H]3c4ccc(O)cc4CC[C@H]3[C@@H]1C[C@@H](O)[C@@H]2O [Estriol] | >1000 μg/T/T | – | – | – | – | – | 7.6 μg/T/T | 110.7 μg/T/T | 79 μg/T/T | – | – | – | did not bring about a doubling of the uterus weight | clearly enhanced | not enhanced or is not enhanced to the same extent | <0.1 | <0.008 | <0.08
3 | C[C@]12CC[C@@H]3c4ccc(O)cc4CC[C@H]3[C@@H]1C[C@@H](OC(=O)c1ccc(S(N)(=O)=O)cc1)[C@@H]2O [Compound 4, 3,17β-Dihydroxyestra-1,3,5(10)-trien-16α-yl 4′-sulfamoylbenzoate] | – | – | – | 2.6 | – | – | – | – | – | – | – | – | – | – | – | – | – | –
4 | C[C@]12CC[C@@H]3c4ccc(OS(N)(=O)=O)cc4CC[C@H]3[C@@H]1CC[C@@H]2O [Estradiol-3-sulfamate, reference compound] | – | – | – | 100 | – | 157 ± 10.6 nM | – | – | – | – | – | – | – | – | – | – | – | –
5 | C[C@]12CC[C@@H]3c4ccc(O)cc4CC[C@H]3[C@@H]1C[C@@H](OC(=O)c1cccc(S(N)(=O)=O)c1)[C@@H]2O [Compound 10, 3,17β-Dihydroxyestra-1,3,5(10)-trien-16α-yl 3′-sulfamoylbenzoate] | 378.2 μg/T/T | – | – | 0.4 | only very weak bonds were detected | 450 nM | 5.7 μg/T/T | 18.6 μg/T/T | 10.7 μg/T/T | 0.015 | 0.49 | 0.028 | – | – | – | – | – | –
6 | C[C@]12CC[C@@H]3c4ccc(O)cc4CC[C@H]3[C@@H]1C[C@@H](O)[C@@H]2OC(=O)c1ccc(S(N)(=O)=O)cc1 [Compound 1, 3,16α-Dihydroxyestra-1,3,5(10)-trien-17β-yl 4′-sulfamoylbenzoate] | 162.6 μg/T/T | – | – | – | – | 200 nM | 17.4 μg/T/T | 45.9 μg/T/T | 39.9 μg/T/T | 0.12 | 0.28 | 0.25 | – | – | – | – | – | –
